Measured values as given in patent US7083918B2, “Bacterial small-molecule three-hybrid system” (The Trustees of Columbia University in the City of New York, priority 2002, dated 2006).

Assays:
tolC^− strains = experiment: growth and viability of tolC- strains on antibiotic; format: cell-based, E. coli
Protocol: Electrocompetent cells of strain V674E were made by standard methods (35); however, the transformation efficiency of this strain is low (10^6–10^7) due to the tolC^− mutation. Using standard methods, both the pACλcI32 and the pBRαLN plasmids or appropriate derivatives were transformed into the strain. Transformants were grown on LB with 100 μg/mL ampicillin and 6 μg/mL chloramphenicol. […] In addition MacConkey plates can't be used because MacConkey media is toxic to strains bearing a tolC^− mutation.

[1] = tested on: λcI-FKBP12 and αNTD-DHFR fusion proteins (lacZ reporter gene in E. coli strain V674E); experiment: liquid lacZ (ONPG) β-galactosidase assay, bacterial three-hybrid system; format: cell-based; details: for effect of unlinked ligand on the levels of transcription in the three-hybrid system: control without Mtx-SLF (FIG. 4)
From the text: The levels of small-molecule induced transcriptional activation were quantified using liquid lacZ assays. The strains here correspond exactly to those in FIG. 2 and are used in liquid ONPG assays where the levels of transcriptional activation can be quantitated based on the amount of reporter protein, b-galactosidase, which is produced. The strains are V674E bearing plasmids encoding λcI and αNTD fusion proteins: 1, λcI-Gal4, αNTD-Gal11^P; 2, λcI, αNTD; 3, λcI-FKBP12, αNTD; 4, λcI-FKBP12, αNTD-DHFR; 5, λcI, αNTD-DHFR. The strains were assayed in triplicate from three transformants and standard deviations are shown. The strains are grown in LB with 0.5 mM IPTG, 100 μg/mL ampicillin, 6 μg/mL chloramphenicol, and small molecules at the indicated concentration. […] The last two small-molecule concentrations are competition assays in which an excess of one of the ligands for the receptor proteins was used to compete out the positive signal due to the three-hybrid system.
The strains are V674E expressing the following λcI and αNTD fusion proteins: (♦), λcI-Gal4, αNTD-Gal11^P (a direct protein-protein interaction); (▬), λcI-FKBP12, αNTD (a negative control); and (▴), λcI-FKBP12, αNTD-DHFR (the three-hybrid system). […] The standard deviation for each data point is also shown.
For the liquid assays, the strains were incubated overnight in LB liquid media containing 100 μg/mL ampicillin, 6 μg/mL chloramphenicol, and 0.5 mM IPTG overnight. These cultures were used to innoculate 1000 fold into LB liquid media containing 100 μg/mL ampicillin, 6 μg/mL chloramphenicol, 0.5 mM IPTG, and small molecule (per concentration indicated in each experiment) and grown to a final OD600 of 0.4-0.6 in a 37° C. shaker which took about 5 hours. No tPEG is used in the liquid assays in order to get a true quantization of the transcription. Then, the protocol from Miller was followed exactly using 0.1 mL cell lysate for the assay (35).

E. coli cells = experiment: toxicity to E. coli cells in three-hybrid experiments; format: cell-based; details: at the low concentrations of Mtx-SLF required for the three-hybrid experiments; tolC^− strain
Protocol: The next step was the construction of the E. coli strain expressing the λcI-FKBP12 and (NTD-DHFR fusion proteins and containing the lacZ reporter construct. Plasmids encoding the λcI-FKBP12 and αNTD-DHFR chimeras were prepared from vectors pACλcI32 and pBRαLN using standard molecular biology techniques (8). The same synthetic lacZ reporter, placOR2-62, as initially reported by the Hochschild lab was used. The reporter placOR2-62 is maintained in one copy in the chromosome as a prophage and encodes the lacZ gene 62 bp downstream from the λcI operator (FIG. 1) (16). Based on previous results from Kopytek and Hu showing that tolC^− and thyA^− mutations improved the viability and tolerance of E. coli to Mtx-based molecules, we expected export as well as toxicity of Mtx-SLF to be problematic in E. coli (32). Thus, we modified the original Hochschild strain KS1 to be tolC^− in order to decrease active export of our small molecule. […] We introduced the tolC^− mutation into KS1 via a P1vir transduction from strain SK037 (32). We call this test strain V674E. Transformation of the plasmids bearing the various λcI and αNTD fusion proteins into V674E yielded the final experimental strains.
These X-gal plate results were confirmed using more quantitative liquid β-galactosidase assays. The liquid assays were carried out essentially as originally described by Miller (35). […]

FKBP12 = FKBP12 (Homo sapiens, UniProt P62942); details: cited from earlier work
Sequence of FKBP12 (P62942 whole entry): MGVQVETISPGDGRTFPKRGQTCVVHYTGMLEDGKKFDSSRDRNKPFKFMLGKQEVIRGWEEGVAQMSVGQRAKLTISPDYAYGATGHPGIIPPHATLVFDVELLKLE

O=C(N[C@H](CO)[C@H](O)c1ccc([N+](=O)[O-])cc1)C(Cl)Cl [Chloramphenicol]
levels that significantly impair growth and viability of tolC^− strains (tolC^− strains): above 8 μg/mL

CN(Cc1cnc2nc(N)nc(N)c2n1)c1ccc(C(=O)N[C@@H](CCC(=O)O)C(=O)O)cc1 [Mtx, methotrexate]
effect of unlinked ligand on the levels of transcription in the three-hybrid system [1]: Neither Mtx, SLF, nor a combination of the two affects the levels of transcription
toxicity in E. coli (need for thyA^− mutation) (E. coli cells): not sufficiently toxic

CCC(C)(C)C(=O)C(=O)N1CCCCC1C(=O)OC(CCc1ccc(OC)c(OC)c1)c1cccc(OCC(=O)O)c1 (stereo not drawn) [SLF]
effect of unlinked ligand on the levels of transcription in the three-hybrid system [1]: Neither Mtx, SLF, nor a combination of the two affects the levels of transcription
affinity for FKBP12 (FKBP12): nanomolar affinity

CCC(C)(C)C(=O)C(=O)N1CCCCC1C(=O)OC(CCc1ccc(OC)c(OC)c1)c1cccc(OCC(=O)OC(C)(C)C)c1 (stereo not drawn) [tert-butyl ester of SLF]
levels of transcription with competitor relative to 1 μM Mtx-SLF alone ([1]; competition: 1 μM Mtx-SLF plus 10-fold excess of competitor): about half
